Structures can show the parent of a compound that is named as a salt. Where two headings read alike, the source gives them in different places.
Key:
FaDu cells = settings: mouse, in vivo, 15 mg/kg
Description: Fox Chase male severe combined immunodeficiency (SCID, Charles River, #250) mice were inoculated with 1×10^6 FaDu cells in PBS at a pre-shaved region located at the anterior lateral thoracic wall. After 13 days of growth, tumors were caliper measured and treatments were initiated. Mice were injected with 15 mg/kg of the compound of Example 1, or vehicle a total of nine times in a five-day span via i.v. tail injection. Upon the final dose, injections were performed subcutaneously (s.c.) due to pronounced hematomas at the tail injection site. Mouse health status was monitored daily, weight was measured, and tumor volume was recorded from caliper measurements. […] Tumor growth was normalized to day 0 caliper measurements, and treatment with the compound of Example 1 (N=6, p<0.01) was compared to vehicle (N=4) using a repeated measures ANOVA with a Dunnett's multiple comparison post test.

MOLT-4 = experiment: Cell growth inhibition GI50; type: cell-based; settings: Homo sapiens, Leukemia
Description: (§1) Cell lines were plated 2000 cells/well in 96-well black optical plates in the presence of 10% FBS media containing 25 nM selenite. The following day cells were treated with various concentrations of the compound of Example 1 (0.1% DMSO final) and incubated for 72 hrs. After the incubation Cell-Quanti Blue reagent was added to each well and incubated for additional 3 hrs. Fluorescence was read ex:530 nm/em:590 nm, and percent of viability was determined using DMSO vehicle and no cell (blank) controls.
(§2) Further results obtained in similar experiments were as indicated below (GI50 refers to concentration of compound yielding 50% growth inhibition; E denotes an exponent to the base 10).

T-47D = experiment: Cell growth inhibition GI50; type: cell-based; settings: Homo sapiens, T47D, Breast Cancer
Description: as §1, §2

K-562 = experiment: Cell growth inhibition GI50; type: cell-based; settings: Homo sapiens, K562, Leukemia
Description: as §1, §2

EKVX = experiment: Cell growth inhibition GI50; type: cell-based; settings: Homo sapiens, Non-Small Cell Lung Cancer
Description: as §1, §2

SK-MEL-5 = experiment: Cell growth inhibition GI50; type: cell-based; settings: Homo sapiens, Melanoma
Description: as §1, §2

HS 5781 = experiment: Cell growth inhibition GI50; type: cell-based; settings: Breast Cancer
Description: as §1, §2

NCI/ADR-RES = experiment: Cell growth inhibition GI50; type: cell-based; settings: Homo sapiens, Ovarian Cancer
Description: as §1, §2

NCI-H322M = experiment: Cell growth inhibition GI50; type: cell-based; settings: Homo sapiens, Non-Small Cell Lung Cancer
Description: as §1, §2

HCT-15 = experiment: Cell growth inhibition GI50; type: cell-based; settings: Homo sapiens, Colon Cancer
Description: as §1, §2

MDA-N = experiment: Cell growth inhibition GI50; type: cell-based; settings: Homo sapiens, Melanoma
Description: as §1, §2

OVCAR-5 = experiment: Cell growth inhibition GI50; type: cell-based; settings: Homo sapiens, Ovarian Cancer
Description: as §1, §2

UO-31 = experiment: Cell growth inhibition GI50; type: cell-based; settings: Homo sapiens, Renal Cancer
Description: as §1, §2

M14 = experiment: Cell growth inhibition GI50; type: cell-based; settings: Homo sapiens, Melanoma
Description: as §1, §2

NCI-H522 = experiment: Cell growth inhibition GI50; type: cell-based; settings: Homo sapiens, Non-Small Cell Lung Cancer
Description: as §1, §2

IGROV1 = experiment: Cell growth inhibition GI50; type: cell-based; settings: Homo sapiens, IGROV-1, Ovarian Cancer
Description: as §1, §2

NCI-H226 = experiment: Cell growth inhibition GI50; type: cell-based; settings: Homo sapiens, Non-Small Cell Lung Cancer
Description: as §1, §2

TK-10 = experiment: Cell growth inhibition GI50; type: cell-based; settings: Homo sapiens, Renal Cancer
Description: as §1, §2

SNB-75 = experiment: Cell growth inhibition GI50; type: cell-based; settings: Homo sapiens, CNS Cancer
Description: as §1, §2

RXF 393 = experiment: Cell growth inhibition GI50; type: cell-based; settings: Homo sapiens, Renal Cancer
Description: as §1, §2

CCRF-CEM = experiment: Cell growth inhibition GI50; type: cell-based; settings: Homo sapiens, Leukemia
Description: as §1, §2

BT-549 = experiment: Cell growth inhibition GI50; type: cell-based; settings: Homo sapiens, Breast Cancer
Description: as §1, §2

[1] = target: T1, recombinant thioredoxin reductase 1 (TrxR1) (Homo sapiens, UniProt Q16881); experiment: Inhibition of recombinant TrxR1 (DTNB assay); type: biochemical
T1 sequence (Q16881 1-649): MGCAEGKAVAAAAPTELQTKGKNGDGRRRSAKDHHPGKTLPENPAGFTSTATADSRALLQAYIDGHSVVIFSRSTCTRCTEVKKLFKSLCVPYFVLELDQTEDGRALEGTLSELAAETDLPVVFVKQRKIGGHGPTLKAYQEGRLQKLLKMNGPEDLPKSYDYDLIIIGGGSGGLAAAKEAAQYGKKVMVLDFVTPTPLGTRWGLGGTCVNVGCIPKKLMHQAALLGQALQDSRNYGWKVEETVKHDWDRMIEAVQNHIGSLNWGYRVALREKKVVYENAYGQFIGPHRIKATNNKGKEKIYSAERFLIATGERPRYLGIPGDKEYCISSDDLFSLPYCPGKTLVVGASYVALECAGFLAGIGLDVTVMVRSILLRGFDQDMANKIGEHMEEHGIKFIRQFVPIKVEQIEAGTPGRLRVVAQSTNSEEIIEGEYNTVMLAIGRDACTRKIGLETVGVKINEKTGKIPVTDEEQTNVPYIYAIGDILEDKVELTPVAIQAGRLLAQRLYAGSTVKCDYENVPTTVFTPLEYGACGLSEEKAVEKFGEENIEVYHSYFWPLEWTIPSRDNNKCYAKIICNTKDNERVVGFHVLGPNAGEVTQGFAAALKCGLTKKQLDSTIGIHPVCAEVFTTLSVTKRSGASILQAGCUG
Method in brief: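 Human TrxR1 (15 nM) or GR (2 nM) preincubated 15 min with compound, 250 μM NADPH, 0.1 mg/ml BSA in 50 mM Tris pH 7.5, 2 mM EDTA, 1% DMSO. Reaction started with 2.5 mM DTNB (TrxR1, A412) or 1 mM GSSG (GR, A340). Percent activity relative to DMSO and no-enzyme blanks.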

SMILES: O=C1C=C[C@H]2[C@@H]3C(=O)N(c4ccccc4)C(=O)[C@@H]3[C@@H]1N2Cc1ccccc1 (relative stereo) [Example 1, exo-11-Benzyl-4-phenyl-4,11-diazatricyclo[5.3.1.0^2,6]undec-9-ene-3,5,8-trione Trifluoroacetate]
- Signs of general or systemic toxic effects (FaDu cells): no overt signs of general or systemic toxic effects in normal cells or tissues
- GI50 (MOLT-4): 1.72 µM
- GI50 (T-47D): 4.92 µM
- GI50 (K-562): 1.67 µM
- GI50 (EKVX): 7.78 µM
- GI50 (SK-MEL-5): 3.56 µM
- GI50 (HS 5781): 3.51 µM
- GI50 (NCI/ADR-RES): 2.55 µM
- GI50 (NCI-H322M): 10.2 µM
- GI50 (HCT-15): 1.74 µM
- GI50 (MDA-N): 3.14 µM
- GI50 (OVCAR-5): 6.75 µM
- GI50 (UO-31): 3.42 µM
- GI50 (M14): 2.6 µM
- GI50 (NCI-H522): 2.68 µM
- GI50 (IGROV1): 4.81 µM
- GI50 (NCI-H226): 7.26 µM
- GI50 (TK-10): 8.07 µM
- GI50 (SNB-75): 4.19 µM
- GI50 (RXF 393): 2.42 µM
- GI50 (CCRF-CEM): 0.942 µM
- GI50 (BT-549): 3.45 µM
- IC50 ([1]; Biological Example 1, 15 nM TrxR1, 250 μM NADPH, 15 minutes incubation, read-out: TrxR inhibition): 2.14 µM
- IC50 ([1]; Biological Example 4, assays of Biological Example 1, read-out: TrxR Inhibition): 2.19 µM
